Reference: patent publication EP0002259B1, “Hydantoin derivatives and salts thereof, their synthesis and pharmaceutical formulations” (THE WELLCOME FOUNDATION LIMITED, priority 1977, dated 1979)

How the values were obtained:
[1] = Solubility in volatile solvent (tablet formulation); type: physicochemical; conditions: methanol, ethanol
Protocol: The compound was dissolved in a volatile solvent. […] The mixture was then pressed to tablets, each 226 mg in weight.

[2] = test system: platelets in fresh human platelet rich plasma (PRP); experiment: Inhibition of platelet aggregation (ADP-stimulated, Born aggregometer), activity compared to PGE1; type: cell-based; conditions: 37°C for 1 minute, ADP 5 µm
Protocol: Aggregation of platelets in 1 ml of fresh human platelet rich plasma (PRP) was monitored in a Born aggregometer.
The compound to be tested was added to the PRP at the desired concentration, and the resulting mixture incubated at 37°C for 1 minute after which platelet aggregation was stimulated by the addition of adenosine diphosphate (ADP) to a concentration of 5 µm.
The antiaggregatory effect of the compound was assessed by measuring the percentage inhibition of platelet aggregation in the presence of the compound as compared with when it was absent. The percentage inhibitions at various concentrations of hydantoin and prostaglandin E, (PGE,) were established and compared to show activity compared to PGE,.

[3] = test system: Male normotensive rats Wistar (Charles River) strain; experiment: Cardiovascular effects in anaesthetised rats (hypotensive effect compared with prostacyclin); type: in vivo; conditions: intravenous injection in physiological saline
Protocol: Male normotensive rats Wistar (Charles River) strain, ([…]) were anesthetised (chloroform) prior to cannulation to left femoral vein and anaestesia maintained by intravenous chloralose (60 mg/kg). Pulsatile blood pressure was recorded from the left femoral artery with an electronic transducer (Bell and Howell Type 4-327 L221) and integrated heart rate was measured with a cardiotachometer triggered from the arterial pressure waves.
The test compound (less polar diastereomer of the compounds of Example 2) was administered as a solution in physiological saline by intravenous injection via the femoral cannula. The responses recorded were allowed to return to the preinjection levels between successive administrations.

With O=C(O)CCCCCCC1C(=O)NC(=S)N1CCC(O)C1CCCCC1 (single isomer, unassigned) [Example 3 less, 5-(6-carboxyhexyl)-l-(3-cyclohexyl-3-hydroxypropyl)-2-thiohydantoin] the solubility [1] was “soluble in methanol and in ethanol”.
With O=C(O)CCCCCCC1C(=O)NC(=S)N1CCC(O)C1CCCC1 (centres unmarked) [Example 5 less, 5-(6-carboxyhexyl)-1-(3-cyclopentyl-3-hydroxypropyl)-2-thiohydantoin] the “Inhibition of Platelet Aggregation (X PGE1)” value (“Inhibition” below) ([2]; activity relative to PGE1) was 0,03 X PGE1.
For O=C(O)CCC/C=C\CC1C(=O)NC(=S)N1CCC(O)C1CCCCC1 (centres unmarked) [Example 6 less, 5-(6-carboxyhex-2Zenyl)-1-(3-cyclohexyl-3-hydroxypropyl)-2-thiohydantoin], the “Inhibition” value ([2]; activity relative to PGE1, listed as 6 less) was 0,04 X PGE1.
With CC(C)(C)CC(O)CCN1C(=S)NC(=O)C1CCCCCCC(=O)O (centres unmarked) [Example 2 less, 5-(6-carboxyhexyl)-1-(5,5-dimethyl-3-hydroxyhexyl)-2-thiohydantoin] the “Inhibition” value ([2]; activity relative to PGE1, listed as 2 less) was 0,04 X PGE1 and the “hypotensive effect, per cent of the hypotensive effect of prostacyclin” value [3] was “less than one”.
For CCCCCC(O)CCN1C(=S)NC(=O)C1CCCCCCC(=O)O (centres unmarked) [Example 1 more, 5-(6-carboxyhexyl)-1-(3-hydroxyoctyl)-2-thiohydantoin], the “Inhibition” value ([2]; activity relative to PGE1) was <0,01 X PGE1.
In the case of CC(C)(C)CC(O)CCN1C(=S)NC(=O)C1CCCCCCC(=O)O (centres unmarked) [Example 2 more, 5-(6-carboxyhexyl)-1-(5,5-dimethyl-3-hydroxyhexyl)-2-thiohydantoin], the “Inhibition” value ([2]; activity relative to PGE1, listed as 2 more) is reported as 0,01 X PGE1.
With O=C(O)CCC/C=C\CC1C(=O)NC(=S)N1CCC(O)C1CCCCC1 (centres unmarked) [Example 6 more, 5-(6-carboxyhex-2Zenyl)-1-(3-cyclohexyl-3-hydroxypropyl)-2-thiohydantoin] the “Inhibition” value ([2]; activity relative to PGE1, listed as 6 more) was 0,02 X PGE1.
